Values quoted from earlier work, collected in patent US7517900B2, “Pyrazole derivatives as cannabinoid receptor modulators” (Bristol-Myers Squibb Company, priority 2003, dated 2009).

Assays:
[1] = chronic administration for two weeks
human subjects = conditions: 16 week trial period, Phase IIb

Compound | body weight [1] | body weight in human subjects (human subjects)
Cc1c(C(=O)NN2CCCCC2)nn(-c2ccc(Cl)cc2Cl)c1-c1ccc(I)cc1 [AM-251] | substantial body weight reduction | –
Cc1c(C(=O)NN2CCCCC2)nn(-c2ccc(Cl)cc2Cl)c1-c1ccc(Cl)cc1 [SR-141716] | – | dose-dependently reduced body weight
